# Reference: US20130089907A1, “HYDROGEN PRODUCTION METHOD USING ALCOHOL AND PHOTOSYNTHETIC BACTERIA” (priority 2010, published 2013)
# Where “and” joins values, the source holds several entries; their conditions need not be identical. Equal entries are not always repeated. Where two headings read alike, the source gives them in different places.
# Experiments:
# R. sphaeroides [1] = experiment: Hydrogen production by R. sphaeroides under photosynthetic condition in the presence of alcohol (GC of gas phase); format: cell-based, Rhodobacter sphaeroides; details: for efficiency of hydrogen production: 10 Watts/m^2, 30° C., anaerobic
# Experimental: For the hydrogen production, R. sphaeroides 2.4.1(ATCC BAA-808, Cohen-Bazire et al. 1956. J. Cell. Comp. Physiol. 49: 25-68) or R. sphaeroides KCTC 12085 were used. To grow the cells, basically Sistrom minimal medium [20 mM KH2PO4, 3.8 mM (NH4)2SO4, 34 mM succinate, 0.59 mM L-glutamate, 0.30 mM L-aspartate, 8.5 mM NaCl, 1.05 mM nitrilotriacetic acid, 1.2 mM MgCl26H2O, 0.23 mM CaCl27H2O, 25 µM FeSO47H2O, 0.16 M (NH4)6Mo7O244H2O, 4.7 M EDTA, 38 M ZnSO47H2O, 9.1 M MnSO4H2O, 1.6 M CuSO45H2O, 0.85 M Co(NO3)26H2O (II), 1.8 M H3BO3, 8.1 M Nicotinic acid, 1.5 M Thiamine HCl, 41 nM biotin (Sistrom, W. R, 1962. J. Gen. Microbiol. 28: 607-616)] were used with the following modifications. To optimize the activity of nitrogenase, Ammonium molybdate was replaced with the same amount of Sodium molybdate, or 7 mM of L-glutamate was used instead of ammonium sulfate, or succinate was replaced with 30 mM malate. To investigate the effect of ammonium, 2 mM Ammonium chloride was added.
# R. sphaeroides was inoculated at the concentration of 10^8 CFU/ml in 10 ml of Sistrom minimal medium and incubated for 120 hrs. to test the hydrogen production at the following condition: 10 Watts/m^2, 30° C., anaerobic. To measure the hydrogen produced, the cells were incubated in a serum vial which was air tight. Before use the air in the vial was replaced with argon gas to remove oxygen. During the reaction, an aliquot of gas in the gas phase was sampled from the vial using the gas-tight syringe, which was further analyzed by a Gas Chromatography (GC, Shimadzu, Japan).
# (§1) Each strain was inoculated to the medium as described above at 10^8 CFU/ml and incubated for 120 hours under the following condition: 10 Watts/m^2 of light, 30° C., and anaerobic condition and the amount of hydrogen produced was tested. The ethanol was added at 0.2 vol % and the cell growth, and hydrogen production and analysis were performed as described in Example 1.
# To determine the optimal concentration and time of the alcohol added, the accumulated amount of hydrogen produced was measured in R. sphaeroides in the presence of varying amounts of ethanol from 0.01 vol % to 2 vol % (volume/volume %) by incubating them under the same condition as described in Example 1.
# In addition to ethanol, other alcohols, that is, methanol (CH3OH), propanol (CH3CH2CH2OH), isopropanol [(CH3)2CHOH], butanol [CH3(CH2)2CH2OH], isoamyl alcohol, [(CH3)2CHCH2CH2OH] were tested. Under the same condition as used in Example 1, each alcohol was added to the cells at the concentration of 0.1%, 0.2%, 0.5%, or 1.0%.
# [2] = system: Rhodobacter capsulatus SB1003; details: R. capsulatus; ethanol 0.2 vol %; modified Sistrom medium depleted with ammonium ion; 120 hours
# Experimental: Rhodobacter capsulatus SB1003 and Rhodospirillum rubrum UR1 selected for the experiment due to their well characterization. For the growth of R. capsulatus, a modified Sistrom medium depleted with ammonium ion was used; and for the growth of R. rubrum, MG minimal medium was used as described in Lehman and Roberts. 1991. J. Bacteriol. 173: 5705-5711.
# as §1
# nitrogenase = system: nitrogenase
# Experimental: The activity of nitrogenase was measured by the rate of ethylene (C2H4) produced using the acetylene (C2H2) as a substrate. The nitrogenase has an ability to produce hydrogen and ethylene by reducing proton (H+) and acetylene in addition to using N2 as substrate (Kern et al. 1992. Appl. Microbiol. Biotechnol. 37: 496-500). The activity of the nitrogenase was measured by incubating R. sphaeroides under the photosynthetic condition of 10 Watts/m^2 of light. 10 ml of the bacteria (10^8 CFU/ml) was placed in a serum vial (65 ml) and incubated under the light until the KU (Klett Unit) reached 150 to 200. To prevent the de novo protein synthesis during the incubation period, chloramphenicol was used at 50 μg/ml and the air in the vial was replaced with argon before use. Acetylene was injected into the vial to occupy 10% of the entire air phase using a gas-tight syringe. The cells were first incubated for 10 min without light and the reaction started under the 10 Watts/m^2 light. The amount of ethylene produced was measured by withdrawing an aliquot of the gas in the gas phase using a gas-tight syringe and by subject them to GC analysis.
# R. sphaeroides [3] = system: R. sphaeroides
# Experimental: The wild type R. sphaeroides cells were grown under 10 Watts/m^2 of light as described in Example 1 and tested for the production of hydrogen.
# The hydrogen produced was analyzed as described in Example 1.
# [4] = concentration not stated (tested at 0.1%, 0.2%, 0.5%, or 1.0%)
compound,measurement,setting,value
CCCO [propanol],concentration with the highest effect on hydrogen production,R. sphaeroides [1],0.5%
same,hydrogen production,R. sphaeroides [1],increased
"CO [Methanol, methanol]",hydrogen production,"R. sphaeroides [1]; alcohol at 0.1%, 0.2%, and 0.5%",increased
same,cell growth,R. sphaeroides [1]; alcohol at 1.0%,inhibit the cell growth
same,concentration with the highest effect on hydrogen production,"R. sphaeroides [1]; tested at 0.1%, 0.2%, 0.5%, or 1.0%",0.2%
CC(C)CCO [isoamyl alcohol],hydrogen production,R. sphaeroides [1]; [4],decrease the hydrogen production
butanol,concentration with the highest effect on hydrogen production,R. sphaeroides [1],0.2%
same,hydrogen production,R. sphaeroides [1],increased
CCO [ethanol],fold increase (hydrogen produced in the presence of alcohol/in the absence of alcohol),[2],1.5 fold and 1.53 fold
same,"activity of nitrogenase, times higher than the control",nitrogenase; 0.2 vol % ethanol vs control without ethanol,4 times
same,activity of nitrogenase,"nitrogenase; 0.2 vol % of EtOH, 10 Watts/m^2 light",18.2 nmole KU^−1 h^−1
same,hydrogen gas producing ability remained in 2 mM ammonium ion compared to 0 mM ammonium ion,"R. sphaeroides [3]; 0.2% ethanol, modified medium, FIG. 4",not less than 80%
same,nitrogenase activity remained in the presence of ammonium ion,R. sphaeroides [3]; after the addition of ethanol,more than 80%
same,growth of cells,R. sphaeroides [1]; 2% ethanol,inhibited the growth
same,hydrogen produced,R. sphaeroides [1]; 2% ethanol,very much decreased
same,fold increase (hydrogen produced in the presence of alcohol/in the absence of alcohol),"R. sphaeroides [1]; R. sphaeroides, ethanol 0.2 vol %, 120 hours",2.21 fold
same,growth of bacteria,"R. sphaeroides [1]; ethanol 0.1 vol % and 0.5 vol %, Sistrom medium containing ammonium ion",not affected
same,"hydrogen production, times higher than the control",R. sphaeroides [1]; ethanol 0.1 vol % or 0.5 vol % vs control without ethanol,10 times
same,efficiency of hydrogen production,"R. sphaeroides [1]; ethanol 0.1 vol %, Sistrom medium containing ammonium ion",5.04 mole H2/mole succinate
same,effect on hydrogen production by time of addition,"R. sphaeroides [1]; ethanol 0.5 vol % added with inoculation (10 KU) or at 100 KU compared to addition at 300 KU, FIG. 5",higher increasing effect on the hydrogen production
same,efficiency of hydrogen production,"R. sphaeroides [1]; ethanol 0.5 vol %, Sistrom medium containing ammonium ion",5.72 mole H2/mole succinate
same,"accumulated hydrogen production, wild type strain","R. sphaeroides [1]; ethanol 0.5 vol %, Sistrom medium containing ammonium ion, FIG. 3",increased hydrogen production
same,hydrogen production,R. sphaeroides [1]; ethanol less than 0.05%,not shown to increase
CC(C)O [isopropanol],increase of hydrogen production,R. sphaeroides [1]; [4],about 35%
